Experimental data published in patent publication US20230129258A1, “HETEROTANDEM BICYCLIC PEPTIDE COMPLEXES” (BicycleTx Limited, priority 2019, published 2023).
Values joined by “and” are separate entries in the source; they are usually repeats but may differ in a detail not shown here. Equal values may be shown once. Read-outs that look alike come from different tables or passages of the source. Starred links: 1 amine or outer side, 2 acyl side, 3 side chain; linkers in the order of their positions; H or OH if unused. Positions of bridges follow the written chain, without caps; N, C: chain ends. Non-standard residues stand in square brackets, D forms with d. Chains are numbered I, II in the order given. X1 = O=C(CCOCCOCCOCCN(CCOCCOCCOCCn1cc(CCC(=O)[*:2])nn1)CCOCCOCCOCCn1cc(CCC(=O)[*:3])nn1)[*:1]; TATA = O=C(CC[*:1])N1CN(C(=O)CC[*:2])CN(C(=O)CC[*:3])C1; d1Nal = N[C@H](Cc1cccc2ccccc12)C(=O)O; Hyp = O=C(O)[C@@H]1C[C@@H](O)CN1; hArg = N=C(N)NCCCC[C@H](N)C(=O)O; tBuAla = CC(C)(C)C[C@H](N)C(=O)O; Nle = CCCC[C@H](N)C(=O)O

Legend:
[1] = target: T1, rat Nectin-4 (Rattus norvegicus, UniProt D3ZET1); assay: SPR direct binding to biotinylated Nectin-4 extracellular domain, rat
T1 sequence (D3ZET1 31-509): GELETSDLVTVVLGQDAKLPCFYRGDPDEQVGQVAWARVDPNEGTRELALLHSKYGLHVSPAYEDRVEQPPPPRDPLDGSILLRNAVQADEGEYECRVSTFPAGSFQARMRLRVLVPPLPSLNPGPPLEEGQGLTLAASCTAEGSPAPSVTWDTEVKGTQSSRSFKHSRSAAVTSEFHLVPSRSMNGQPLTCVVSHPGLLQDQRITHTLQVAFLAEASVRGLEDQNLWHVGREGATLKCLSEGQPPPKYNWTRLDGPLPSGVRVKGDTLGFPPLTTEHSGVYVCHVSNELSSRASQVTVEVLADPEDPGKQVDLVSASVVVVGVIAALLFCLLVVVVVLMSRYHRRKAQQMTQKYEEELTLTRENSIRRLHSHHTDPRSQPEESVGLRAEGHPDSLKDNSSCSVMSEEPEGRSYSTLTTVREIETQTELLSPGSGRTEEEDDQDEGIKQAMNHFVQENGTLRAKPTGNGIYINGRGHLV
Description: The binding of BCY11863 to its primary target Nectin-4 and CD137 was characterized using surface plasmon resonance (SPR).

[2] = Pharmacokinetics in CD1 mice; assay type: in vivo, CD-1 mice
Experimental: Serial bleeding (about 80 μL blood/time point) was performed via submandibular or saphenous vein at each time point. All blood samples were immediately transferred into prechilled microcentrifuge tubes containing 2 μL K2-EDTA (0.5M) as anti-coagulant and placed on wet ice. Blood samples were immediately processed for plasma by centrifugation at approximately 4° C., 3000 g. The precipitant including internal standard was immediately added into the plasma, mixed well and centrifuged at 12,000 rpm, 4° C. for 10 minutes. The supernatant was transferred into pre-labeled polypropylene microcentrifuge tubes, and then quick-frozen over dry ice. The samples were stored at […] or below as needed until analysis. 7.5 μL of the supernatant samples were directly injected for LC-MS/MS analysis using an Orbitrap Q Exactive in positive ion mode to determine the concentrations of analyte. Plasma concentration versus time data were analyzed by non-compartmental approaches using the Phoenix WinNonlin 6.3 software program. C0, CI, Vdss, T½, AUC(0-last), AUC(0-inf), MRT(0-last), MRT(0-inf) and graphs of plasma concentration versus time profile were reported.

[3] = target: CD137 (Homo sapiens, UniProt Q07011); assay: CD137 reporter assay (Promega, Jurkat cells) in co-culture with EphA2-expressing tumor cells (A549, PC3, HT29); assay type: cell-based; design: host or cells: Jurkat reporter cells; settings: for EC50: EC50 (nM); for EC50 / Emax: individual replicates
Sequence of CD137 (Q07011 24-255): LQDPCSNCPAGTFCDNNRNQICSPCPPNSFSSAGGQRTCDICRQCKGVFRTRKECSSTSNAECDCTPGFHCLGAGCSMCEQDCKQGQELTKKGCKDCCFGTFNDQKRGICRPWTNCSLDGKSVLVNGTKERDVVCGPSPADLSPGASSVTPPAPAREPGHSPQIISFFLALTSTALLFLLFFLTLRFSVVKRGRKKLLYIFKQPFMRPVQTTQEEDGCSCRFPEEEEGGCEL
Summary of the method: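 Promega CD137 luciferase reporter Jurkat cells co-cultured with tumor cells (RKO for PD-L1; A549, PC3, HT29 for EphA2) and serially diluted test articles in RPMI + 1% FBS, 6 h at 37° C. Bio-Glo luminescence as fold change over cells alone; log(agonist)-response fit gives EC50 (nM) and max fold induction.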

In the case of `CCCC[C@@H]1NC(=O)[C@H](Cc2ccc(O)cc2)NC(=O)[C@@H]2CCCN2C(=O)[C@H](CC(=O)O)NC(=O)[C@H](C)NC(=O)[C@H](Cc2ccccc2)NC(=O)[C@@H]2CSCCC(=O)N3CN(CN(C3)C(=O)CCSC[C@@H](C(=O)N[C@@H](C)C(N)=O)NC1=O)C(=O)CCSC[C@H](NC(C)=O)C(=O)N[C@@H](CC(C)(C)C)C(=O)N1CCC[C@H]1C(=O)N[C@@H](CCC(=O)O)C(=O)N[C@H](CCCCNC(=O)CCc1cn(CCOCCOCCOCCN(CCOCCOCCOCCC(=O)N[C@H]3CSCCC(=O)N4CN5CN(C4)C(=O)CCSC[C@H](NC(=O)[C@@H](CC(=O)O)NC(=O)[C@H](Cc4cccc6ccccc46)NC(=O)[C@@H]4CCCN4C3=O)C(=O)N[C@@H](CCSC)C(=O)N[C@@H](CCCCNC(=N)N)C(=O)N[C@@H](CC(=O)O)C(=O)N[C@@H](Cc3c[nH]c4ccccc34)C(=O)N[C@@H](CO)C(=O)N[C@@H]([C@@H](C)O)C(=O)N3CCC[C@H]3C(=O)N3C[C@H](O)C[C@H]3C(=O)N[C@@H](Cc3c[nH]c4ccccc34)C(=O)N[C@H](C(N)=O)CSCCC5=O)CCOCCOCCOCCn3cc(CCC(=O)NCCCC[C@H]4NC(=O)[C@H](CCC(=O)O)NC(=O)[C@@H]5CCCN5C(=O)[C@H](CC(C)(C)C)NC(=O)[C@@H](NC(C)=O)CSCCC(=O)N5CN6CN(C5)C(=O)CCSC[C@H](NC(=O)[C@H](Cc5ccc(O)cc5)NC(=O)[C@@H]5CCCN5C4=O)C(=O)N[C@@H](Cc4ccccc4)C(=O)N[C@@H](C)C(=O)N[C@@H](CC(=O)O)C(=O)N4CCC[C@H]4C(=O)N[C@@H](Cc4ccc(O)cc4)C(=O)N[C@@H](CCCC)C(=O)N[C@H](C(=O)N[C@@H](C)C(N)=O)CSCCC6=O)nn3)nn1)C(=O)N1CCC[C@H]1C(=O)N[C@@H](Cc1ccc(O)cc1)C(=O)N2` [BCY11863], the Kd ([1]; KD, biotinylated ECD captured on streptavidin chip) is reported as 5 to 27 nM, the Kd ([1]; SPR KD Rat (25° C.), Direct Binding, biotinylated Nectin-4 extracellular domain, 25° C.) is reported as 15 ± 1 nM and the “bioavailability from IP dosing” value ([2]; IP dosing) is reported as “high”. The “clearance (in words)” value ([2]; IV study) was “low clearance molecule”, the “volume of distribution (in words)” value ([2]; IV study) was “volume of distribution larger than plasma volume” and the half-life ([2]; male, CD-1, mouse, plasma, 15 mg/kg, mice, after IP injection, read-out: circulating plasma half-life (converted)) was 150 min. It also gave a clearance ([2]; male, mouse, plasma, CD-1 mice, 0.96 mg/kg IV Bolus, read-out: Clp) of 21 mL/min/kg, a half-life ([2]; male, mouse, plasma, CD-1 mice, 0.96 mg/kg IV Bolus, read-out: T½ (converted)) of 102 min and a Vd ([2]; male, mouse, plasma, CD-1 mice, 0.96 mg/kg IV Bolus, read-out: Vdss) of 2.9 L/kg. For the same compound, the clearance ([2]; male, mouse, plasma, CD-1 mice, 5.6 mg/kg IV Bolus, read-out: Clp) was 9.7 mL/min/kg, the half-life ([2]; male, mouse, plasma, CD-1 mice, 5.6 mg/kg IV Bolus, read-out: T½ (converted)) was 156 min and the Vd ([2]; male, mouse, plasma, CD-1 mice, 5.6 mg/kg IV Bolus, read-out: Vdss) was 1.6 L/kg. It also gave a clearance ([2]; male, mouse, plasma, CD-1 mice, 12 mg/kg IV Bolus, read-out: Clp) of 17 mL/min/kg, a half-life ([2]; male, mouse, plasma, CD-1 mice, 12 mg/kg IV Bolus, read-out: T½ (converted)) of 156 min and a Vd ([2]; male, mouse, plasma, CD-1 mice, 12 mg/kg IV Bolus, read-out: Vdss) of 2.5 L/kg. It also gave a bioavailability ([2]; male, mouse, plasma, CD-1 mice, 15.5 mg/kg IP) of 100%, a half-life ([2]; male, mouse, plasma, CD-1 mice, 15.5 mg/kg IP, read-out: T½ (converted)) of 150 min and a half-life ([2]; male, mouse, plasma, CD-1 mice, 32 mg/kg IV Bolus, read-out: T½ (converted)) of 144 min. For the same compound, the Vd ([2]; male, mouse, plasma, CD-1 mice, 32 mg/kg IV Bolus, read-out: Vdss) was 2.1 L/kg.

“I: A[hArg]DC[Hyp]LVNPLCLEP[d1Nal]WTC-NH2 / II: Ac-C[tBuAla]PE[dK]PYCFADPY[Nle]CA-NH2 / III: Ac-C[tBuAla]PE[dK]PYCFADPY[Nle]CA-NH2 (linker I:4-I:11-I:18, II:1-II:8-II:15, III:1-III:8-III:15 via TATA; linker I:N-II:5-III:5 via X1) [BCY13272]” gave a clearance ([2]; male, CD-1, mouse, plasma, 5.5 mg/kg IV, n=3, read-out: Clearance) of 7.5 mL/min/kg, a half-life ([2]; male, CD-1, mouse, plasma, 5.5 mg/kg IV, n=3, read-out: terminal plasma half life (converted)) of 174 min and a Vd ([2]; male, CD-1, mouse, plasma, 5.5 mg/kg IV, n=3, read-out: volume of distribution (Vdss)) of 1.1 L/kg. The EC50 ([3]; co-culture with HT-29) was 0.567 nM and 0.187 nM and 0.205 nM, the EC50 ([3]; co-culture with PC-3) was 0.0805 nM and 0.0898 nM and 0.245 nM and the “CD137 activation in CD137 reporter assay” value ([3]; FIG. 16, PC3, A549 and HT29) was “induces strong CD137 activation”. For the same compound, the Emax ([3]; co-culture with A549) was 25.7 fold and 23.6 fold and 30.2 fold, the Emax ([3]; co-culture with HT-29) was 36.5 fold and 26 fold and 36.4 fold and the Emax ([3]; co-culture with PC-3) was 44.2 fold and 53 fold and 44.5 fold.
